Test results from PMC12744908 (Journal of medicinal chemistry, 2025).

Legend:
[1] = system: Plasmodium falciparum, Strain D6; experiment: In vitro antiplasmodial activity, fluorescence-based SYBR Green assay, strain D6; assay type: cell-based; settings: D6, 72 h, read-out: IC50 v D6 ± SD
HepG2 cytotoxicity assay = assay type: cell-based; settings: human
Plasmodium yoelii [2] = experiment: In vivo parasite suppression at fixed dose, modified 4-day Peters test; parameters: species or system Plasmodium yoelii (female CF1 mice); settings: for inhibition in vivo at 2.5 mg/kg: Plasmodium yoelii, in Mus musculus, po, 120 h, read-out: % Py Suppression; for % Py Suppression: 2.5 mg/kg/d oral, Days 1-4, parasitemia Day 5 vs vehicle control, n = 4
[3] = Murine microsomal stability; assay type: in vitro ADME
Plasmodium yoelii [4] = experiment: In vivo efficacy; parameters: species or system Plasmodium yoelii (female CF1 mice); settings: oral once daily for 4 days, parasitemia Day 5
Plasmodium yoelii [5] = experiment: Single dose cure; assay type: in vivo, Plasmodium yoelii (female CF1 mice); settings: single oral dose Day 1, 0% parasitemia until Day 30
[6] = mouse, pooled liver microsomes, pH 7.4

Row | SMILES | CC50 at 24 h (HepG2 cytotoxicity assay; HepG2 cells) [µM] | inhibition in vivo at 2.5 mg/kg (Plasmodium yoelii [2]) [%] | CLint scaled at 1 μM [3, 6] [mL/min/kg] | also measured
1 | CCN(CC)CCCC(C)Nc1ccnc2cc(Cl)ccc12 (centres unmarked) [Compound 1, chloroquine] |  |  |  | IC50 [1]: 0.0096 ± 0.002 µM
2 | Clc1ccc2c(Nc3ccc(N4CCOCC4)cc3)ccnc2c1 [Compound 7, 7-chloro-N-(4-morpholinophenyl)quinolin-4-amine] | > 200 |  |  | 
3 | FC(F)(F)Oc1ccc(-c2cnc3cc(Cl)ccc3c2Nc2ccc(N3CCOCC3)cc2)cc1 [Compound 8, 7-chloro-N-(4-morpholinophenyl)-3-(4-(trifluoromethoxy)phenyl)quinolin-4-amine] | > 200 |  |  | 
4 | Clc1ccc2c(Nc3ccc(C4COCCN4Cc4ccccc4)cc3)ccnc2c1 (centres unmarked) [Compound 12, N-(4-(4-benzylmorpholin-3-yl)phenyl)-7-chloroquinolin-4-amine] | > 200 |  |  | 
5 | CCN1CCOCC1c1ccc(Nc2ccnc3cc(Cl)ccc23)cc1 (centres unmarked) [Compound 13, 7-chloro-N-(4-(4-ethylmorpholin-3-yl)phenyl)quinolin-4-amine] | > 200 |  |  | 
6 | CCN1CCOCC1c1ccc(Nc2c(-c3ccc(OC(F)(F)F)cc3)cnc3cc(Cl)ccc23)cc1 (centres unmarked) [Compound 14, 7-chloro-N-(4-(4-ethylmorpholin-3-yl)phenyl)-3-(4-(trifluoromethoxy)phenyl)quinolin-4-amine] | > 200 |  |  | 
7 | Clc1ccc2c(Nc3ccc(C4CN(Cc5ccccc5)CCO4)cc3)ccnc2c1 (centres unmarked) [Compound 15, N-(4-(4-benzylmorpholin-2-yl)phenyl)-7-chloroquinolin-4-amine] | 38 |  |  | 
8 | FC(F)(F)Oc1ccc(-c2cnc3cc(Cl)ccc3c2Nc2ccc(C3CN(Cc4ccccc4)CCO3)cc2)cc1 (centres unmarked) [Compound 16, N-(4-(4-benzylmorpholin-2-yl)phenyl)-7-chloro-3-(4-(trifluoromethoxy)phenyl)quinolin-4-amine] | > 200 |  |  | 
9 | Clc1ccc2c(Nc3ccc(N4CCN(Cc5ccccc5)CC4)cc3)ccnc2c1 [Compound 17, N-(4-(4-benzylpiperazin-1-yl)phenyl)-7-chloroquinolin-4-amine] | > 200 | 0 | 392 | 
10 | CCN1CCN(c2ccc(Nc3ccnc4cc(Cl)ccc34)cc2)CC1 [Compound 20, 7-chloro-N-(4-(4-ethylpiperazin-1-yl)phenyl)quinolin-4-amine] | > 200 | 60 | 2930 | ED50 v Py (Plasmodium yoelii [4]): 1.5 mg/kg/day; ED90 v Py (Plasmodium yoelii [4]): 8.4 mg/kg/day
11 | CN1CCN(c2ccc(Nc3ccnc4cc(Cl)ccc34)cc2)CC1 [Compound 21, 7-chloro-N-(4-(4-methylpiperazin-1-yl)phenyl)quinolin-4-amine] |  |  | 3780 | 
12 | CCN1CCN(c2ccc(Nc3ccnc4cc(Cl)c(Cl)cc34)cc2)CC1 [Compound 24, 6,7-dichloro-N-(4-(4-ethylpiperazin-1-yl)phenyl)quinolin-4-amine] | > 200 |  |  | 
13 | CCN1CCN(c2ccc(Nc3ccnc4cc(Br)ccc34)cc2)CC1 [Compound 25, 7-bromo-N-(4-(4-ethylpiperazin-1-yl)phenyl)quinolin-4-amine] | 48 |  |  | 
14 | CCN1CCN(c2ccc(Nc3ccnc4cc(C(F)(F)F)ccc34)cc2)CC1 [Compound 26, N-(4-(4-ethylpiperazin-1-yl)phenyl)-7-(trifluoromethyl)quinolin-4-amine] | > 200 |  |  | 
15 | CC(C)(C)N1CCN(c2ccc(Nc3ccnc4cc(Cl)ccc34)cc2)CC1 [Compound 31, N-(4-(4-(tert-butyl)piperazin-1-yl)phenyl)-7-chloroquinolin-4-amine] | > 200 | 30 |  | t1/2 (microsomal stability) ([3]; pooled murine liver microsomes, 1 μM, 0.5 mg/mL protein, 37 °C, 1 h): ∞; compound metabolized over the course of the microsomal experiment ([3]; pooled murine liver microsomes, 1 h): no detectable amount of compound was metabolized; ED50 v Py (Plasmodium yoelii [4]): 4.0 mg/kg/day; ED90 v Py (Plasmodium yoelii [4]): 7.6 mg/kg/day
16 | FC(F)(F)c1ccc(N2CCN(c3ccc(Nc4ccnc5cc(Cl)ccc45)cc3)CC2)cc1 [Compound 32, 7-chloro-N-(4-(4-(4-(trifluoromethyl)phenyl)piperazin-1-yl)phenyl)quinolin-4-amine] | > 200 |  |  | 
17 | Clc1ccc2c(Nc3ccc(N4CCN(C5CC5)CC4)cc3)ccnc2c1 [Compound 33, 7-chloro-N-(4-(4-cyclopropylpiperazin-1-yl)phenyl)quinolin-4-amine] | > 200 |  |  | 
18 | Clc1ccc2c(Nc3ccc(N4CCCCC4)cc3)ccnc2c1 [Compound 34, 7-chloro-N-(4-(piperidin-1-yl)phenyl)quinolin-4-amine] | > 200 |  |  | 
19 | CC(C)N1CCC(c2ccc(Nc3ccnc4cc(Cl)ccc34)cc2)CC1 [Compound 35, 7-chloro-N-(4-(1-isopropylpiperidin-4-yl)phenyl)quinolin-4-amine] | > 200 | 48 | 124 | ED50 v Py (Plasmodium yoelii [4]): 1.1 mg/kg/day; ED90 v Py (Plasmodium yoelii [4]): 4.1 mg/kg/day
20 | CC(C)(C)OC(=O)N1CCN(c2ccc(Nc3ccnc4cc(Cl)ccc34)cc2)CC1 [Compound 36, tert-butyl 4-(4-((7-chloroquinolin-4-yl)amino)phenyl)piperazine-1-carboxylate] | > 200 |  |  | 
21 | Clc1ccc2c(Nc3ccc(N4CCNCC4)cc3)ccnc2c1 [Compound 38, 7-chloro-N-(4-(piperazin-1-yl)phenyl)quinolin-4-amine] | 54 |  |  | 
22 | Clc1ccc2c(Nc3ccc(C4CCNCC4)cc3)ccnc2c1 [Compound 39, 7-chloro-N-(4-(piperidin-4-yl)phenyl)quinolin-4-amine] | 58 |  |  | 
23 | CCN1CCC(c2ccc(Nc3ccnc4cc(Cl)ccc34)cc2)CC1 [Compound 40, 7-chloro-N-(4-(1-ethylpiperidin-4-yl)phenyl)quinolin-4-amine] |  | 13 | 497 | ED50 v Py (Plasmodium yoelii [4]): 1.8 mg/kg/day; ED90 v Py (Plasmodium yoelii [4]): 13 mg/kg/day
24 | CCCN1CCC(c2ccc(Nc3ccnc4cc(Cl)ccc34)cc2)CC1 [Compound 41, 7-chloro-N-(4-(1-propylpiperidin-4-yl)phenyl)quinolin-4-amine] | > 200 | 39 | 78 | % Py Suppression (Plasmodium yoelii [2]): 39%
25 | CCCCN1CCC(c2ccc(Nc3ccnc4cc(Cl)ccc34)cc2)CC1 [Compound 42, N-(4-(1-butylpiperidin-4-yl)phenyl)-7-chloroquinolin-4-amine] | > 200 | 53 | 130 | 
26 | CC(C)CN1CCC(c2ccc(Nc3ccnc4cc(Cl)ccc34)cc2)CC1 [Compound 43, 7-chloro-N-(4-(1-isobutylpiperidin-4-yl)phenyl)quinolin-4-amine] |  | 91 |  | CC50 at 24 h (HepG2 cytotoxicity assay): > 200 µM; % Py Suppression (Plasmodium yoelii [2]): 91%; SDC (single dose cure) (Plasmodium yoelii [5]): 50 mg/kg
27 | CCC(C)N1CCC(c2ccc(Nc3ccnc4cc(Cl)ccc34)cc2)CC1 (centres unmarked) [Compound 44, N-(4-(1-(sec-butyl)piperidin-4-yl)phenyl)-7-chloroquinolin-4-amine] | > 200 | 71 | 98.3 | 
28 | CC(C)CN1CCN(c2ccc(Nc3ccnc4cc(Cl)ccc34)cc2)CC1 [Compound 45, 7-chloro-N-(4-(4-isobutylpiperazin-1-yl)phenyl)quinolin-4-amine] | > 200 |  | 843 | % Py Suppression (Plasmodium yoelii [2]): 30%; half-life at 1 μM [3, 6]: 6.47 min
